Assays:
[1] = tested on: mouse FL5.12 cells transfected with Bcl-XL; assay: FL5.12 cellular assay (cell viability, CellTiter-Glo); format: cell-based; conditions: Mus musculus; FL5.12 cells transfected with Bcl-XL, IL-3-depleted, 3% FBS assay media, 24 hours, CellTiter-Glo; read-out: FL5.12 Bcl-xL, - IL3, EC 50;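 note: each EC50 determination derived from duplicate measurements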
GST-Bcl-xL = GST-Bcl-xL (Homo sapiens, UniProt Q07817); conditions: read-out: TR-FRET binding Bcl-xL Ki
Chain of GST-Bcl-xL (Q07817 whole entry): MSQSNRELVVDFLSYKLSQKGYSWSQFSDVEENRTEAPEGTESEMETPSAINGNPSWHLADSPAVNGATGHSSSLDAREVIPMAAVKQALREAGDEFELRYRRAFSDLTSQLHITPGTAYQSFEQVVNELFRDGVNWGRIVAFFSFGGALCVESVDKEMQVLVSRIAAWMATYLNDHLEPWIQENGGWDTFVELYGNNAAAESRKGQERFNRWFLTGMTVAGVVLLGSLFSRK

CN(C)CCOc1cccc(Cn2cc(-c3ccc(N4CCc5cccc(C(=O)Nc6nc7ccccc7s6)c5C4)nc3C(=O)O)cn2)c1 [Example 18, 6-[8-(1,3-benzothiazol-2-ylcarbamoyl)-3,4-dihydroisoquinolin-2(1H)-yl]-3-(1-{3-[2-(dimethylamino)ethoxy]benzyl}-1H-pyrazol-4-yl)pyridine-2-carboxylic acid]
EC50 [1]: 621 nM
Ki (GST-Bcl-xL): 38 nM

CCOC(=O)c1nn(Cc2ccccc2)c(C)c1-c1ccc(N2CCc3cccc(C(=O)Nc4nc5ccccc5s4)c3C2)nc1C(=O)O [Example 33, 6-[8-(1,3-benzothiazol-2-ylcarbamoyl)-3,4-dihydroisoquinolin-2(1H)-yl]-3-[1-benzyl-3-(ethoxycarbonyl)-5-methyl-1H-pyrazol-4-yl]pyridine-2-carboxylic acid]
EC50 [1]: > 1000 nM
Ki (GST-Bcl-xL): 169 nM

COCCC(c1ccccc1)n1cc(-c2ccc(N3CCc4cccc(C(=O)Nc5nc6ccccc6s5)c4C3)nc2C(=O)O)cn1 (stereo not shown) [Example 93, 6-[8-(1,3-benzothiazol-2-ylcarbamoyl)-3,4-dihydroisoquinolin-2(1H)-yl]-3-[1-(3-methoxy-1-phenylpropyl)-1H-pyrazol-4-yl]pyridine-2-carboxylic acid]
EC50 [1]: 295 nM
Ki (GST-Bcl-xL): 16 nM

Cc1c(-c2ccc(N3CCc4cccc(C(=O)Nc5nc6ccccc6s5)c4C3)nc2C(=O)O)cnn1Cc1ccccc1OCCN1CCOCC1 [Example 79, 6-[8-(1,3-benzothiazol-2-ylcarbamoyl)-3,4-dihydroisoquinolin-2(1H)-yl]-3-(5-methyl-1-{2-[2-(morpholin-4-yl)ethoxy]benzyl}-1H-pyrazol-4-yl)pyridine-2-carboxylic acid]
EC50 [1]: 19 nM
Ki (GST-Bcl-xL): 0.5 nM

Cc1c(-c2ccc(N3CCc4cccc(C(=O)Nc5nc6ccccc6s5)c4C3)nc2C(=O)O)cnn1CC1CCCCO1 (stereo not shown) [Example 154, 6-[8-(1,3-benzothiazol-2-ylcarbamoyl)-3,4-dihydroisoquinolin-2(1H)-yl]-3-[5-methyl-1-(tetrahydro-2H-pyran-2-ylmethyl)-1H-pyrazol-4-yl]pyridine-2-carboxylic acid]
EC50 [1]: 15 nM
Ki (GST-Bcl-xL): < 0.1 nM

COCC(COC1(Cn2ncc(-c3ccc(N4CCc5cccc(C(=O)Nc6nc7ccccc7s6)c5C4)nc3C(=O)O)c2C)CCCCCC1)OC (stereo not shown) [Example 170, 6-[8-(1,3-benzothiazol-2-ylcarbamoyl)-3,4-dihydroisoquinolin-2(1H)-yl]-3-(1-{[1-(2,3-dimethoxypropoxy)cycloheptyl]methyl}-5-methyl-1H-pyrazol-4-yl)pyridine-2-carboxylic acid]
EC50 [1]: 0.5 nM
Ki (GST-Bcl-xL): < 0.1 nM

CC1(C)CCC(Cn2cc(-c3ccc(N4CCc5cccc(C(=O)Nc6nc7ccccc7s6)c5C4)nc3C(=O)O)cn2)=C(c2ccc(Cl)cc2)C1 [Example 83, 6-[8-(1,3-benzothiazol-2-ylcarbamoyl)-3,4-dihydroisoquinolin-2(1H)-yl]-3-(1-{[2-(4-chlorophenyl)-4,4-dimethylcyclohex-1-en-1-yl]methyl}-1H-pyrazol-4-yl)pyridine-2-carboxylic acid]
EC50 [1]: > 1000 nM
Ki (GST-Bcl-xL): 0.5 nM

CN(C)CCCOc1ccccc1Cn1cc(-c2ccc(N3CCc4cccc(C(=O)Nc5nc6ccccc6s5)c4C3)nc2C(=O)O)cn1 [Example 47, 6-[8-(1,3-benzothiazol-2-ylcarbamoyl)-3,4-dihydroisoquinolin-2(1H)-yl]-3-(1-{2-[3-(dimethylamino)propoxy]benzyl}-1H-pyrazol-4-yl)pyridine-2-carboxylic acid]
EC50 [1]: 881 nM
Ki (GST-Bcl-xL): 16 nM

O=C(Nc1nc2ccccc2s1)c1cccc2c1CN(c1ccc(-c3cnn(Cc4cc(F)ccc4F)c3)c(C(=O)O)n1)CC2 [Example 54, 6-[8-(1,3-benzothiazol-2-ylcarbamoyl)-3,4-dihydroisoquinolin-2(1H)-yl]-3-[1-(2,5-difluorobenzyl)-1H-pyrazol-4-yl]pyridine-2-carboxylic acid]
EC50 [1]: 501 nM
Ki (GST-Bcl-xL): 15 nM

Cc1c(-c2ccc(N3CCc4cccc(C(=O)Nc5nc6ccccc6s5)c4C3)nc2C(=O)O)cnn1CC1(OCCS(C)(=O)=O)CCCC(C)(C)C1 (stereo not shown) [Example 178, 6-[8-(1,3-benzothiazol-2-ylcarbamoyl)-3,4-dihydroisoquinolin-2(1H)-yl]-3-[1-({3,3-dimethyl-1-[2-(methylsulfonyl)ethoxy]cyclohexyl}methyl)-5-methyl-1H-pyrazol-4-yl]pyridine-2-carboxylic acid]
EC50 [1]: 0.2 nM
Ki (GST-Bcl-xL): < 0.1 nM

COCCOC1(Cn2ncc(-c3ccc(N4CCc5cccc(C(=O)Nc6nc7ccccc7s6)c5C4)nc3C(=O)O)c2C)CCCCC1 [Example 101, 6-[8-(1,3-benzothiazol-2-ylcarbamoyl)-3,4-dihydroisoquinolin-2(1H)-yl]-3-(1-{[1-(2-methoxyethoxy)cyclohexyl]methyl}-5-methyl-1H-pyrazol-4-yl)pyridine-2-carboxylic acid]
EC50 [1]: < 1 nM
Ki (GST-Bcl-xL): 0.4 nM

COCCC1(Cn2cc(-c3ccc(N4CCc5cccc(C(=O)Nc6nc7ccccc7s6)c5C4)nc3C(=O)O)cn2)CCCCC1 [Example 88, 6-[8-(1,3-benzothiazol-2-ylcarbamoyl)-3,4-dihydroisoquinolin-2(1H)-yl]-3-(1-{[1-(2-methoxyethyl)cyclohexyl]methyl}-1H-pyrazol-4-yl)pyridine-2-carboxylic acid]
EC50 [1]: 229 nM
Ki (GST-Bcl-xL): 3 nM

O=C(Nc1nc2ccccc2s1)c1cccc2c1CN(c1ccc(-c3cnn(C(CCN4CCOCC4)c4ccccc4)c3)c(C(=O)O)n1)CC2 (stereo not shown) [Example 77, 6-[8-(1,3-benzothiazol-2-ylcarbamoyl)-3,4-dihydroisoquinolin-2(1H)-yl]-3-{1-[3-(morpholin-4-yl)-1-phenylpropyl]-1H-pyrazol-4-yl}pyridine-2-carboxylic acid]
EC50 [1]: 431 nM
Ki (GST-Bcl-xL): 10 nM

Cc1c(-c2ccc(N3CCc4cccc(C(=O)Nc5nc6ccccc6s5)c4C3)nc2C(=O)O)cnn1CC1(N2CCOCC2)CCCC(C)(C)C1 (stereo not shown) [Example 145, 6-[8-(1,3-benzothiazol-2-ylcarbamoyl)-3,4-dihydroisoquinolin-2(1H)-yl]-3-(1-{[3,3-dimethyl-1-(morpholin-4-yl)cyclohexyl]methyl}-5-methyl-1H-pyrazol-4-yl)pyridine-2-carboxylic acid]
EC50 [1]: 0.2 nM
Ki (GST-Bcl-xL): < 0.1 nM

O=C(Nc1nc2ccccc2s1)c1cccc2c1CN(c1ccc(-c3cnn(Cc4ccccc4OCc4ccncc4)c3)c(C(=O)O)n1)CC2 [Example 48, 6-[8-(1,3-benzothiazol-2-ylcarbamoyl)-3,4-dihydroisoquinolin-2(1H)-yl]-3-{1-[2-(pyridin-4-ylmethoxy)benzyl]-1H-pyrazol-4-yl}pyridine-2-carboxylic acid]
EC50 [1]: > 1000 nM
Ki (GST-Bcl-xL): 7 nM

Cc1c(-c2ccc(N3CCc4cccc(C(=O)Nc5nc6ccccc6s5)c4C3)nc2C(=O)O)cnn1CC1(OCC(O)CO)CCCCCC1 (stereo not shown) [Example 175, 6-[8-(1,3-benzothiazol-2-ylcarbamoyl)-3,4-dihydroisoquinolin-2(1H)-yl]-3-(1-{[1-(2,3-dihydroxypropoxy)cycloheptyl]methyl}-5-methyl-1H-pyrazol-4-yl)pyridine-2-carboxylic acid]
EC50 [1]: 33 nM
Ki (GST-Bcl-xL): < 0.1 nM

N#Cc1c(OC2CCCCC2)cccc1-c1ccc(N2CCc3cccc(C(=O)Nc4nc5ccccc5s4)c3C2)nc1C(=O)O [Example 116, 6-[8-(1,3-benzothiazol-2-ylcarbamoyl)-3,4-dihydroisoquinolin-2(1H)-yl]-3-[2-cyano-3-(cyclohexyloxy)phenyl]pyridine-2-carboxylic acid]
EC50 [1]: 667 nM
Ki (GST-Bcl-xL): < 0.1 nM

— patent publication EP2768830B1, “APOPTOSIS-INDUCING AGENTS FOR THE TREATMENT OF CANCER AND IMMUNE AND AUTOIMMUNE DISEASES” (AbbVie Inc., priority 2011, dated 2013)
